# Assay results: patent publication US8569511B2, “Substituted 3-(1H-benzo[d]imidazol-2-yl)-1H-indazole analogs as inhibitors of the PDK1 kinase” (University of Utah Research Foundation, priority 2011, dated 2013)
# Read-outs that look alike come from different tables or passages of the source.
# Assays:
# [1] = tested on: RL95-2 cells; experiment: Cell viability assay (ATP-lite); assay type: cell-based; conditions: for IC50: Homo sapiens
# Description: (§1) AN3-CA (PTEN-deficient), RL95-2 (PTEN-deficient), and HEC-1A (PTEN-wild type) cells were plated in 45 μl of RPMI-1640 media supplemented with 10% FBS and 1% Pen/Strep at a density of 1000 cells per well in white 384-well plates. Cells were allowed to attach by incubation overnight at 37° C. and 5% CO2. Test compounds were diluted to 10× concentrations in RPMI-1640 media (containing 3% DMSO) and 5 μl 1 of these dilutions were added in triplicate to the appropriate wells containing the cells. The plates containing the drug-treated cells and appropriate controls were incubated for 96 hours. At the end of the incubation, 40 μl of ATP-lite (PerkinElmer, Inc., Waltham, Massachussetts) reagent were added to each well and luminescence signal was measured on an EnVision microplate reader.
# (§2) Alternatively, AN3-CA, RL95-2, HEC-1A endometrial cancer cell lines were plated at a density of 2000 cells per well in a 96 well culture plate in 45 μl of cell culture media and incubated overnight. […] Vehicle treated controls were also included and each condition was applied in quadruplicate. Following 96 hours of incubation, 35 μL of ATP-lite (PerkinElmer) reagent was added each well and allowed to react for 10 minutes. Plate was read on a Envision 2104 MultiLabel reader (PerkinElmer).
# (§3) IC50 values are determined using GraphPad Prism 5 software. The data were entered as an X-Y plot into the software as percent inhibition for each concentration of the drug. The concentration values of the drug were log transformed and the nonlinear regression was carried out using the “sigmoidal dose-response (variable slope)” option within the GraphPad software to model the data and calculate IC50 values.
# [2] = tested on: HEC-1A cells; experiment: Cell viability assay (ATP-lite); assay type: cell-based; conditions: for IC50: Homo sapiens
# Description: as §1, §2, §3
structure (smiles),measurement,setting,value
"O=C(Nc1ccc2[nH]nc(-c3nc4ccc(N5CCOCC5)cc4[nH]3)c2c1)C1CC1(F)F (stereo not shown) [Compound 1, 2,2-difluoro-N-(3-(5-morpholino-1H-benzo[d]imidazol-2-yl)-1H-indazol-5-yl)cyclopropanecarboxamide]","Potency in cell viability assay, RL-95-2 (in words)",[1]; FIG. 6,moderately potent
same,IC50,"[1]; RL95-2, Table VI panel, mutation PTEN, HRAS, read-out: IC50 cell viability, RL95-2",654 nM
same,IC50,"[1]; RL95-2, read-out: IC50 cell viability, RL-95-A",479 nM
same,IC50,"[1]; RL95-2 (PTEN mutation), read-out: Cell Viability IC50 RL95-2",479 nM
same,"Potency in cell viability assay, HEC-1A (in words)",[2]; FIG. 6,relatively inactive
same,IC50,"[2]; HEC-1-A, Table VI panel, mutation KRAS, PIK3CA, read-out: IC50 cell viability, Hec-1A",3760 nM
same,IC50,"[2]; HEC-1A (PTEN-wild type), read-out: Cell Viability IC50 HEC-1A",3780 nM
